Measured values published in ChEMBL document CHEMBL4433255, “Small-molecule agents for the treatment of inflammatory bowel disease” (Bioorg Med Chem Lett, 2019).

What was measured:
[1] = system: Mus musculus; test: Immunosuppressive activity in BALB/c mouse assessed as inhibition of leukocyte homing to peyer's patches orally dosed by FACS analysis; type: functional, organism-based
[2] = biological target: T1, Integrin alpha-4/beta-7 (Homo sapiens, UniProt P13612+P26010); test: Antagonist activity at integrin alpha4beta7 expressed in human RPMI8866 cells assessed as reduction in cell adhesion to rat MadCAM incubated for 40 to 60 mins by lactate dehydrogenase assay; type: cell-based
T1 sequence (P13612 whole entry): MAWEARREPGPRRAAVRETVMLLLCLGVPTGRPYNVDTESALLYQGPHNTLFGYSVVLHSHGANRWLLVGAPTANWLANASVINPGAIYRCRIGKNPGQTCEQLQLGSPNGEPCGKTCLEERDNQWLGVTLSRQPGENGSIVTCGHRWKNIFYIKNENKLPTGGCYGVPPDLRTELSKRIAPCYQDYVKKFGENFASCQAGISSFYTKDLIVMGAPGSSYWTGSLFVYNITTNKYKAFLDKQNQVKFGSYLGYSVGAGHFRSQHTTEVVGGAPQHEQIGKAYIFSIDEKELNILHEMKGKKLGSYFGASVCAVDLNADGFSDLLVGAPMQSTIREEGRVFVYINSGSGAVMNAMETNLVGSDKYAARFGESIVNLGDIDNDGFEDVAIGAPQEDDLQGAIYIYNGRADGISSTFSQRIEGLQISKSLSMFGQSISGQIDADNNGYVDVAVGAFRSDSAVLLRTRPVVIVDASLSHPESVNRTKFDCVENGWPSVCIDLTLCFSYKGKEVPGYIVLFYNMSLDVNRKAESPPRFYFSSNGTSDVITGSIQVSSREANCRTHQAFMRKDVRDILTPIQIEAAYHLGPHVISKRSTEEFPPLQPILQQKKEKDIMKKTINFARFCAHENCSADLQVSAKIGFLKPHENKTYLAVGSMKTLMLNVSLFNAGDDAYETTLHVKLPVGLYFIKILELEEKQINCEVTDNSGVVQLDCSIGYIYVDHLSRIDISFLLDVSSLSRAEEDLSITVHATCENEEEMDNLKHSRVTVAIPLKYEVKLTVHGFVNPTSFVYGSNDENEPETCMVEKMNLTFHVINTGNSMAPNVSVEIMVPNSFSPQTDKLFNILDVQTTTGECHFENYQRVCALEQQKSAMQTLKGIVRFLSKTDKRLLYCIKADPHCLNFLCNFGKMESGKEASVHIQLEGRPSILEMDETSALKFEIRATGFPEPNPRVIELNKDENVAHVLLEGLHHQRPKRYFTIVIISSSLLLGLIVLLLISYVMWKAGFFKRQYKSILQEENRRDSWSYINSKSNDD
T1 sequence (P26010 whole entry): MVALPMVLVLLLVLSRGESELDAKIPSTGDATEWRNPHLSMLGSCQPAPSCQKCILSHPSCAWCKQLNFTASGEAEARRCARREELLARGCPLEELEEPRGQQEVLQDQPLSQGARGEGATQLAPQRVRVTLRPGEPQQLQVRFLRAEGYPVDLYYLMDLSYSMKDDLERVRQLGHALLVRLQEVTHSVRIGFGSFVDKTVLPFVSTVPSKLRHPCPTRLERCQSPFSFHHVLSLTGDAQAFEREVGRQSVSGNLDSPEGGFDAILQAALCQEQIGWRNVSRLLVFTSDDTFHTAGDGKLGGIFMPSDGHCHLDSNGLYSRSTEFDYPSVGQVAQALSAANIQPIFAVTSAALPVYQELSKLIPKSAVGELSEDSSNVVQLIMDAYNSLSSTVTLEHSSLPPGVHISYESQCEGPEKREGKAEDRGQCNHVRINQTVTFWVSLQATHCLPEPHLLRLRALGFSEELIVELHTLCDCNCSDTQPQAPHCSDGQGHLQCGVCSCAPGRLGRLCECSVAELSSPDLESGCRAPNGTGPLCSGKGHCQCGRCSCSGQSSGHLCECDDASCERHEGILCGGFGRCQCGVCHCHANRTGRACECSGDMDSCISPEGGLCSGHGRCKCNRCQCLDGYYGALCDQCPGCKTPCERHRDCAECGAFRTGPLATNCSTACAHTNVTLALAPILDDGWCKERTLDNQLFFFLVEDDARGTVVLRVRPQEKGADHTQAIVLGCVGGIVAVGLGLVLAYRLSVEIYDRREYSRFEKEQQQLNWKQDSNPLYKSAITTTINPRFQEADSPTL

[3] = Inhibition of IL-10 deficient BALB/c mouse CD4 positive T-cell migration by immunofluorescence method relative to control; type: functional
[4] = biological target: Integrin alpha-4/beta-1 (Homo sapiens, UniProt P05556+P13612); test: Antagonist activity at integrin alpha4beta1 expressed in human Jurkat cells assessed as reduction in cell adhesion to human VCAM-1 incubated for 40 to 60 mins by lactate dehydrogenase assay; type: cell-based
Integrin alpha-4/beta-1, sequence (P05556 whole entry, one chain of several): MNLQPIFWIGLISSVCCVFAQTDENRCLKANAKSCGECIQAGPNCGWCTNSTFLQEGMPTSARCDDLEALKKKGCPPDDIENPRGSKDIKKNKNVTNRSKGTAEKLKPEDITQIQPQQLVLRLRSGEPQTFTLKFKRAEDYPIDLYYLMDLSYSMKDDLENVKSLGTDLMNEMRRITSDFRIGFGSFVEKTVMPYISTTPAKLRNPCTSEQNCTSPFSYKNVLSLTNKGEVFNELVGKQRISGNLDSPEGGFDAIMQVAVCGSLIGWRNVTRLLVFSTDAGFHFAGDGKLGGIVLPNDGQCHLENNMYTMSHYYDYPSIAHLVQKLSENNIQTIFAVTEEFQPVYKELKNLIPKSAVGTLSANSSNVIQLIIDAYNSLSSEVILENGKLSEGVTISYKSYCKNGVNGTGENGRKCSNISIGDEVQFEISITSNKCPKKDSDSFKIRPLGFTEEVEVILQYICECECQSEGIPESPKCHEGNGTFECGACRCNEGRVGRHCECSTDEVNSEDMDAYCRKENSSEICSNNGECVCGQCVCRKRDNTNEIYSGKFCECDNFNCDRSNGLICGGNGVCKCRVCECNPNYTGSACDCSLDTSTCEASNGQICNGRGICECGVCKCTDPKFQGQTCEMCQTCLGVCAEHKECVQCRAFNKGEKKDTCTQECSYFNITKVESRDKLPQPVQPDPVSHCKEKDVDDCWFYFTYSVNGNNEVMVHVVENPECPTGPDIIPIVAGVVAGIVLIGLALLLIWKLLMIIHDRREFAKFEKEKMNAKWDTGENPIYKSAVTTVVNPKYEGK

[5] = system: Rattus norvegicus; test: Antiinflammatory activity in Sprague-Dawley rat model of TNBS-induced colitis assessed as reduction in number of circulating lymphocytes at 0.6 mg/kg, po dosed 2 hrs after TNBS treatment and continued daily for 7 days by gavage and measured up to 24 hrs post treatment relative to control; type: functional; design: scale not given: the % may be the effect or the level left
[6] = biological target: Sphingosine 1-phosphate receptor 5 (Homo sapiens, UniProt Q9H228); test: Agonist activity at S1P5 (unknown origin) assessed as stimulation of [35S]GTPgammaS binding incubated for 120 mins in presence of GDP by TopCount scintillation counting method; type: functional
Sphingosine 1-phosphate receptor 5, sequence (Q9H228 whole entry): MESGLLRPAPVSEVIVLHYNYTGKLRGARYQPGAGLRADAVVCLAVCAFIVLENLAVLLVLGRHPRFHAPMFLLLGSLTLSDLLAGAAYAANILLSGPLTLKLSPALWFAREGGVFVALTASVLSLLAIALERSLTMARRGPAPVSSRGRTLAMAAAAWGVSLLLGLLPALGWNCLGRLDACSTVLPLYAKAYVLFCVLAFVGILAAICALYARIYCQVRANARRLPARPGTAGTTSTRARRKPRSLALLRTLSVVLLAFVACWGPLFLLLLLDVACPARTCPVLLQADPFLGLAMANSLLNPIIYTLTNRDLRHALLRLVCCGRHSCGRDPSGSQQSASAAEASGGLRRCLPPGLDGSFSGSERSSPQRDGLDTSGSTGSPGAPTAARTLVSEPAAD

[7] = species on record: Homo sapiens; test: Selectivity ratio of EC50 for recombinant human BCR-JAK1 expressed in mouse Ba/F3 cells to EC50 for recombinant human TEL-TYK2 expressed in mouse Ba/F3 cells; type: cell-based
[8] = species on record: Homo sapiens; test: Selectivity ratio of EC50 for recombinant human BCR-JAK1 expressed in mouse Ba/F3 cells to EC50 for recombinant human TEL-JAK2 expressed in mouse Ba/F3 cells; type: cell-based
[9] = species on record: Homo sapiens; test: Selectivity ratio of EC50 for recombinant human BCR-JAK1 expressed in mouse Ba/F3 cells to EC50 for recombinant human TEL-JAK3 expressed in mouse Ba/F3 cells; type: cell-based
[10] = Inhibition of recombinant human BCR-JAK1 expressed in mouse Ba/F3 cells assessed as reduction in pSTAT5 level incubated for 30 mins by AlphaScreen assay; type: cell-based; conditions: BaF3, 0.5 h
[11] = system: BaF3; test: Inhibition of chemotaxis in mouse BAF3 cells; type: functional, cell-based

SMILES: CN(C)c1ccc2c(c1)c(=O)n(-c1ccc(C[C@H](NC(=O)c3c(Cl)cccc3Cl)C(=O)O)cc1)c(=O)n2C
- EC50 [1]: 180 nM
- EC50 [2]: 1.4 nM
- inhibition (INH) [3]: >95%
- EC50 [4]: 5.4 nM

SMILES: CC(C)Oc1ccc(-c2nc(-c3cccc4c3CC[C@@H]4NCCO)no2)cc1C#N [OZANIMOD]
- Activity [5]: 51%
- EC50 [6]: 4.3 nM

SMILES: CC[C@@H]1CN(C(=O)NCC(F)(F)F)C[C@@H]1c1cnc2cnc3[nH]ccc3n12 [UPADACITINIB]
- Ratio EC50 [7]: 192
- Ratio EC50 [8]: 42
- Ratio EC50 [9]: 133
- EC50 [10]: 14 nM

SMILES: CC(C)(C)c1ccc(S(=O)(=O)Nc2ccc(Cl)cc2C(=O)c2cc[n+]([O-])cc2)cc1 [VERCIRNON]
- EC50 [11]: 2.8 nM
